Laboratory results: patent publication US20040214803A1, “Use of vitamin d3 analogue for the treatment of autoimmune diabetes” (priority 2001, published 2004)

Assays:
IFN-γ = assay: LPS-induced IFN-γ production in vivo (serum ELISA); design: species or system mouse; details: 0.03 μg/Kg per os 72, 48, 24, 1 h before LPS; serum 3 h post LPS
Protocol: Lymphokine production was induced in 8 week-old female NOD mice by i.p. injection of 400 μg/mouse Salmonella abortus equi LPS (Sigma). Compound A was administered 72, 48, 24, and 1 h prior to LPS. Blood samples were collected 3 h post LPS injection and serum cytokines measured by ELISA.
Cytokines were quantified by two-sites ELISA. IFN-γ was determined using paired mAb from PharMingen (San Diego, Calif.). For capture, the mAb was AN-18.17.24. Samples were titrated and incubated overnight at 4° C. To detect bound IFN-γ plates were then incubated with biotinylated XMG1.2 mAb. […] The plates were washed again and incubated with the developing substrate p-nitrophenylphosphate disodium (Sigma) in diethanolamine buffer (pH 9.6; 100 μl/well). The reaction was stopped by adding 50 μl/well NaOH 3N, and absorbance was read at 405 nm. ELISA for IL-12p75 was performed as described (Gately, M. K., et al., Current Protocols Immunol. 1995, 3, 15:6.16.11-16.16.15). Cytokines were quantified from two to three titration points using standard curves generated by purified recombinant mouse cytokines and results expressed as cytokine concentration in ng or pg/ml. Detection limits were 15 pg/ml for both cytokines. […]
FIG. 3. […] IFN-γ, IL-12p75 and serum calcium levels were quantified 3 h post LPS injection. […] The P values were calculated by Mann-Whitney U test (* indicates P<0.05 vs. vehicle-treated NOD mice).

CD4+ T cells = assay: Flow cytometric analysis of surface molecules on CD4+ cells from treated NOD mice; format: in vivo, mouse
Protocol: Single-cell suspensions of pancreas-infiltrating, spleen or lymph node cells were incubated with anti-CD4 mAb-coated Microbeads (Miltenyi Biotec) and applied onto Mini-MACS columns (Miltenyi Biotec). Stainings were performed in the presence of 100 μg/ml mouse IgG using the following mAbs, all from PharMingen: CyChrome-labeled Streptavidin, FITC-labeled anti-CD4 (L3T4), PE-labeled anti-CD45RB (16A), PE-labeled anti-CD62L (MEL-14), PE-labeled anti-CD38 (rat IgG2a), FITC-labeled anti-CD69 (H1.2F3), and biotinylated anti-CD25 (7D4). Cells were analyzed with a FACScan flow cytometer equipped with CellQuest software (Becton Dickinson, Mountain View, Calif.).
Therefore, we analyzed the frequency of CD4^+ CD25^+ cells in 1,25-dihydroxy-16,23Z-diene-26,27-hexafluoro-19-nor vitamin D3-treated NOD mice. No difference was found in the percentage of splenic CD4^+ cells expressing CD25, CD38, CD69, CD62L and CD45RB in 20 week-old Compound A or vehicle-treated and untreated 8 week-old NOD mice (FIG. 6A).
FIG. 6. (page 6/9) Compound A treatment enhances the frequency of CD4^+ CD25^+ cells. Positively selected CD4^+ T cells were stained with mAbs specific for the indicated surface molecules and analyzed by flow cytometry. Acquisition was performed on CD4^+ cells. Bars represent the percent of spleen and lymph node CD4^+ T cells expressing the indicated surface molecules from untreated 8 week-old (□) or 20 week-old NOD mice treated 5×/week from 8 to 16 weeks of age with vehicle ( ? ) or with 0.03 μg/Kg Compound A (▪). Data are presented as mean ±SE of three separate experiments. The P values were calculated by Mann-Whitney U test (* indicates P<0.05 vs. 8 week-old NOD mice).

[1] = test system: vascularized heart allograft; assay: Vascularized heart allograft survival, C57BL/6 into BALB/c recipients; format: in vivo, mouse
Source text: Fully vascularized hearts were grafted into the abdomen of recipient mice as described (Corry, R. J., H. J. Winn, and P. S. Russell. Primarily vascularized allografts of hearts in mice. The role of H-2D, H-2K, and non-H-2 antigens in rejection. Transplantation. 1973, 16:343). Graft survival was monitored by palpation and rejection was confirmed by direct graft inspection.

SMILES: C[C@H](C/C=C\C(O)(C(F)(F)F)C(F)(F)F)C1=CC[C@H]2/C(=C/C=C3C[C@@H](O)C[C@H](O)C3)CCC[C@]12C [Compound A, 1,25-dihydroxy-16,23Z-diene-26,27-hexafluoro-19-nor vitamin D3]
- LPS-induced IFN-γ production (IFN-γ): inhibited significantly
- percentage of splenic CD4+ cells expressing CD25, CD38, CD69, CD62L and CD45RB (CD4+ T cells; 20 week-old mice, vs vehicle-treated and untreated 8 week-old): No difference
- percentage of CD45RBhigh (CD4+ T cells; pancreatic lymph node CD4+ cells, 8 week-old 75.9±0.5%, vehicle 74.2±1.6): 65.1±0.3%
- percentage of CD4+ CD25+ (CD4+ T cells; pancreatic lymph node cells, 8 week-old 11.6±0.1%, vehicle 13.0±0.1): 20.1±0.1%
- percentage of CD4+ CD38+ (CD4+ T cells; pancreatic lymph node cells, 8 week-old 11.8±0.1%, vehicle 10.6±1.0): 25.2±0.2%
- percentage of CD45RBlow CD4+ cells (CD4+ T cells; pancreatic lymph node cells, 8 week-old 12.65±0.43%, vehicle 34.8±0.01): 24.1±0.22%
- double positive CD25+ CD38+ CD4+ cells (CD4+ T cells; pancreatic lymph node, 8 week-old 8%, vehicle 7%): 17%
- Graft survival (days) Mean ([1]; 0.01 μg/kg po (d-1, 0, +1) then 0.003 μg/kg po (d+2 until d+30)): 12.00 days
- Graft survival (days) Mean ([1]; 0.1 μg/kg po (d-1, 0, +1) then 0.03 μg/kg (d+2 until d 15)): 38.20 days
